Laboratory results published in US12427134B2, “Methods of reducing the risk of cardiovascular events in a subject with atrial fibrillation and/or atrial flutter” (priority 2019, dated 2025).
“And” between values parts separate entries of the source, which are not always exact repeats. Equal entries are not always repeated.

Tested on: hypertriglyceridemic patients with cardiovascular disease or at high risk for cardiovascular disease
Experiment: REDUCE-IT: time to first occurrence of adjudicated cardiovascular endpoint events (primary, key secondary, other secondary, tertiary; sensitivity and landmark analyses)
Type: in vivo
Details: for New Onset Hypertension, patients with event: non-adjudicated
Source text: The following study, also referred to as the REDUCE-IT clinical trial, was a large cardiovascular (CV) outcome trial designed to assess CV risk reduction benefit of AMR101 treatment (commercially known as VASCEPA®) versus placebo on the 5-point primary composite endpoint: CV death, non-fatal stroke, non-fatal myocardial infarction (MI), coronary revascularizations, or unstable angina requiring hospitalization.
A multi-center, prospective, randomized, double-blind, placebo-controlled, parallel-group study was performed to evaluate the effect of AMR101 (4 g per day) on cardiovascular health and mortality in hypertriglyceridemic patients with cardiovascular disease or at high risk for cardiovascular disease. The intended expanded indication of the study was treatment with AMR101 as an add-on to statin therapy to reduce the risk of cardiovascular events in patients with clinical cardiovascular disease or with multiple risk factors for cardiovascular disease.
The primary objective of this study was, in patients at LDL-C goal while on statin therapy, with established cardiovascular disease (CVD) or at high risk for CVD, and hypertriglyceridemia (e.g., fasting triglycerides (TG) ≥200 mg/dL and <500 mg/dL), to evaluate the effect of AMR101 4 g daily on time from randomization to first occurrence of any component of the composite of the following major CV events: CV death; nonfatal MI; (including silent MI; electrocardiograms (ECGs) were performed annually for the detection of silent MIs); nonfatal stroke; coronary revascularization; and unstable angina determined to be caused by myocardial ischemia by invasive/non-invasive testing and requiring emergent hospitalization.
The key secondary objective of this study was to evaluate the effect of AMR101 4 g daily on the time from randomization to the first occurrence of the composite of following major CV events: CV death, nonfatal MI (including silent MI), and nonfatal stroke.
Other secondary objectives for this study were to evaluate the effect of therapy on time from randomization to the first occurrence of the following individual or composite endpoints: composite of CV death or nonfatal MI (including silent MI); fatal or nonfatal MI (including silent MI); non-elective coronary revascularization represented as the composite of emergent or urgent classifications; CV death; unstable angina determined to be caused by myocardial ischemia by invasive/non-invasive testing and requiring emergent hospitalization; fatal or nonfatal stroke; composite of total mortality, nonfatal MI (including silent MI), or nonfatal stroke; and total mortality.
The key tertiary objectives for this study were to evaluate the effect of AMR101 4 g daily from baseline and percent change from baseline in fasting triglycerides and LDL-C. […]

[1] = ITT population, 4 g daily, N = 4089
[2] = ITT population, listed as Icosapent Ethyl

CC/C=C\C/C=C\C/C=C\C/C=C\C/C=C\CCCC(=O)OCC [AMR101, eicosapentaenoic acid ethyl ester]
Key secondary endpoint, HR (2-year landmark, ITT population): 0.831 | Fatal or nonfatal MI, relative risk reduction (4 g per day): 31% | Fatal or nonfatal stroke, relative risk reduction (4 g per day): 28% | Hospitalization for unstable angina, relative risk reduction (4 g per day): 32% | Total mortality, nonfatal MI, or nonfatal stroke, relative risk reduction (4 g per day): 23% | Total mortality, relative risk reduction (4 g per day): 13% | Urgent or emergent revascularization, relative risk reduction (4 g per day): 35% | Non-CV deaths, patients (CEC-adjudicated): 2.4% | Total mortality, patients (CEC-adjudicated deaths): 6.7% | Component contributing to key secondary endpoint (first event): CV Death (ITT population): 149 (3.6) n (%) | Component contributing to key secondary endpoint (first event): Nonfatal MI (ITT population): 230 (5.6) n (%) | Component contributing to key secondary endpoint (first event): Nonfatal Stroke (ITT population): 80 (2.0) n (%) | Component contributing to primary endpoint (first event): CV Death (ITT population): 137 (3.4) n (%) | Component contributing to primary endpoint (first event): Coronary Revascularization (ITT population): 189 (4.6) n (%) | Component contributing to primary endpoint (first event): Hospitalization for Unstable Angina (ITT population): 94 (2.3) n (%) | Component contributing to primary endpoint (first event): Nonfatal MI (ITT population): 205 (5.0) n (%) | Component contributing to primary endpoint (first event): Nonfatal Stroke (ITT population): 80 (2.0) n (%) | Composite: CV Death, Nonfatal MI, Non-Elective Coronary Revascularization, Unstable Angina, Nonfatal Stroke, or PVD Requiring Intervention (ITT population): 683 (16.7) n (%) | Composite: CV Death, Nonfatal MI, Non-Elective Coronary Revascularization, Unstable Angina, Nonfatal Stroke, or PVD Requiring Intervention, HR (95% CI) (ITT population): 0.77 (0.70-0.86) | Composite: CV Death, Nonfatal MI, Non-Elective Coronary Revascularization, Unstable Angina, PVD Requiring Intervention, or Cardiac Arrhythmia (ITT population): 741 (18.1) n (%) | Composite: CV Death, Nonfatal MI, Non-Elective Coronary Revascularization, Unstable Angina, PVD Requiring Intervention, or Cardiac Arrhythmia, HR (95% CI) (ITT population): 0.86 (0.78-0.94) | Composite: CV Death, Nonfatal MI, Non-Elective Coronary Revascularization, or Unstable Angina (ITT population): 513 (12.5) n (%) | Composite: CV Death, Nonfatal MI, Non-Elective Coronary Revascularization, or Unstable Angina, HR (95% CI) (ITT population): 0.76 (0.68-0.85) | Composite: CV Death, Nonfatal MI, Nonfatal Stroke, Cardiac Arrhythmia, or Cardiac Arrest (ITT population): 589 (14.4) n (%) | Composite: CV Death, Nonfatal MI, Nonfatal Stroke, Cardiac Arrhythmia, or Cardiac Arrest, HR (95% CI) (ITT population): 0.82 (0.73-0.91) | Coronary Revascularization (all), HR (95% CI) (ITT population): 0.66 | Coronary Revascularization (all), patients with event (ITT population): 9.2% | Fatal or nonfatal MI (including silent MI), patients with event (ITT population): 6.1% | Fatal or nonfatal MI, HR (ITT population): 0.688 | Fatal or nonfatal stroke, HR (ITT population): 0.720 | Fatal or nonfatal stroke, patients with event (ITT population): 2.4% | Hospitalization for unstable angina, HR (ITT population): 0.679 | Hospitalization for unstable angina, patients with event (ITT population): 2.6% | Key secondary endpoint in patients with impaired glucose metabolism at baseline, HR (ITT population): 0.829 | Key secondary endpoint in patients with impaired glucose metabolism at baseline, patients with event (ITT population): 11.3% | New Heart Failure (newly emergent CHF), HR (95% CI) (ITT population): 0.95 | New Heart Failure (newly emergent CHF), patients with event (ITT population): 4.1% | New Onset Hypertension, HR (95% CI) (ITT population): 0.86 | Non-elective (emergent or urgent) coronary revascularization, HR (ITT population): 0.653 | Peripheral Artery Disease, HR (95% CI) (ITT population): 0.97 | Peripheral Artery Disease, patients with event (ITT population): 3.8% | Primary endpoint in patients with diabetes at baseline, HR (95% CI) (ITT population): 0.769 (0.677-0.873) | Primary endpoint in patients with diabetes at baseline, patients with event (ITT population): (18.1%) | Primary endpoint in patients with impaired glucose metabolism at baseline, HR (95% CI) (ITT population): 0.795 (0.675-0.937) | Primary endpoint in patients with metabolic syndrome at baseline, HR (95% CI) (ITT population): 0.744 (0.671-0.824) | Silent MI, patients with event (ITT population): 0.7% | Sudden Cardiac Death, HR (95% CI) (ITT population): 0.69 | Total Mortality or Newly Emergent CHF (ITT population): 393 (9.6) n (%) | Total Mortality or Newly Emergent CHF, HR (95% CI) (ITT population): 0.90 (0.78-1.03) | Total mortality, HR (ITT population): 0.87 | Total mortality, nonfatal MI, or nonfatal stroke, HR (ITT population): 0.772 | Key secondary composite endpoint (CV death, nonfatal MI, nonfatal stroke), patients with event [1]: 459 (11.2%) n (%) and 459 (11.2) n (%) | Primary composite endpoint (CV death, nonfatal MI, nonfatal stroke, coronary revascularization, hospitalization for unstable angina), patients with event [1]: 705 (17.2%) n (%) and 705 (17.2) n (%) | New Onset Hypertension, patients with event (ITT population): 0.3% | New Onset Hypertension, patients with event [2]: (0.3) % | Amputation for PVD, patients with event [2]: (0.5%) | Cardiac Arrest, HR (95% CI) [2]: 0.52 (0.31, 0.86) | Cardiac Arrest, patients with event [2]: (0.5%) | Coronary Revascularization (all), HR (95% CI) [2]: 0.66 (0.58, 0.76) | Coronary Revascularization (all), patients with event [2]: (9.2%) | Elective Revascularization, HR (95% CI) [2]: 0.68 (0.57, 0.82) | Elective Revascularization, patients with event [2]: (4.7%) | Emergent Revascularization, HR (95% CI) [2]: 0.62 (0.42, 0.92) | Emergent Revascularization, patients with event [2]: (1.0%) | Ischemic Stroke, HR (95% CI) [2]: 0.64 (0.49, 0.85) | Ischemic Stroke, patients with event [2]: (2.0%)
